Consider 38 compounds from ChEMBL document CHEMBL5604062, “ASAP - ZIKV NS2B-NS3 protease fluorescence dose response” (2024).

SMILES strings stand for the structures. Values joined by “and” are separate entries in the source; they are usually repeats but may differ in a detail not shown here. Identical values can stand only once.

The target of this assay is Nonstructural protein 3 (Zika virus, UniProt A0A024AXB9). As to the kind of experiment: Functional biochemical assay to identify treatments for viral infectious disease that targets Zika NS2B-NS3 protease. Utilizing a direct enzyme activity measurement method, reading the fluorescence intensity is used to characterize the relative potency of inhibitors as IC50. Also noted: species or system PRVABC59.
Chain of Nonstructural protein 3 (A0A024AXB9 whole entry): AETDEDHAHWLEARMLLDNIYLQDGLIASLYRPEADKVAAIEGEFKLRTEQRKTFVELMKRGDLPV
`Cc1ncc2c(n1)CCC[C@H]2NC(=O)c1cccc2c1CC(=O)N2`: the IC50 (as a rule, the concentration that inhibits the measured activity by half) was above 25000 nM.
With `O=C1Cc2c(cccc2C(=O)N[C@H]2C[C@H](OC(F)F)C2)N1` the figure was above 25000 nM.
With `Cc1c(C(=O)Nc2ccc3c(c2)CCCC(=O)N3C)cc(C2CC2)n1C` the figure was above 25000 nM; with `O=C(Nc1cc2c(c(-c3c[nH]c(=O)c(F)c3)c1)CNC2)c1cc(F)cc2[nH]ncc12`, 25 nM and 15 nM.
In turn, `Cc1c(C(=O)Nc2ccc3c(c2)CCCC(=O)N3)cc(C2CC2)n1C` registered an IC50 above 25000 nM.
With `COc1cc(OC)cc([C@H]2CCN(C(=O)Nc3ccc4c(c3)CNC4)C2)c1` the figure was above 25000 nM; with `COCn1ncc2c(C(=O)Nc3ccc4c(c3)CNC4)cc(Cl)cc21`, 80 nM and 54 nM; with `CO[C@H]1C[C@H](n2ncc3c(C(=O)Nc4ccc5c(c4)CNC5)cc(Cl)cc32)C1`, 54 nM and 42 nM.
For `O=C(Nc1cc(-c2cccnc2)ccn1)c1cc(C2CC2)on1`, the IC50 is above 25000 nM.
With `Cc1nc(C2CC2)[nH]c1C(=O)Nc1cc(-c2cccnc2)ccn1`, the IC50 is above 25000 nM.
The result for `CN1C(=O)CC[C@H]1c1nc2c(C(=O)Nc3ccc4c(c3)CNC4)cc(F)cc2[nH]1` reads 264 nM; that for `O=C1Cc2c(cccc2C(=O)N[C@H]2CC[C@H](OC3CCCC3)CC2)N1`, above 25000 nM; that for `Cc1nc(C2(NC(=O)c3cccc4c3CC(=O)N4)CCC2)no1`, above 25000 nM.
The result for `C[C@H]1C[C@H]1c1cc(C(=O)Nc2cc(-c3cccnc3)ccn2)no1` reads above 25000 nM.
The result for `O=C1Cc2c(cccc2C(=O)NC2(c3ncccc3F)CC2)N1` reads above 25000 nM.
`Cc1[nH]c(-c2ccccc2)cc1C(=O)Nc1cc(-c2cccnc2)ccn1` gave an IC50 above 25000 nM.
The compound `CC(C)NC(=O)[C@H](Nc1ccc2c(c1)CN(C)C2)c1cc(Cl)cc2[nH]ncc12` came in with an IC50 of 533 nM.
With `Cc1c(C(=O)Nc2cccc(-c3ccc(O)nc3)c2)cc(C2CC2)n1C` the figure was above 25000 nM; with `CC(C)(O)c1cncc(NC(=O)c2cccc3c2CC(=O)N3)c1`, above 25000 nM.
The compound `O=C(Nc1ccc2c(c1)CNC2)c1cc(Cl)cc2c1cnn2C[C@H]1CCCO1` registered an IC50 of 136 nM.
`Cc1c(C(=O)Nc2ccc3c(c2)CS(=O)(=O)C3)cc(C2CC2)n1C` showed an IC50 above 25000 nM.
Regarding `COC(=O)N1CCc2cc(NC(=O)c3cc(C4CC4)n(C)c3C)ccc21`, the IC50 was above 25000 nM.
The result for `O=C1Cc2c(cccc2C(=O)N[C@H]2C[C@H](c3ccon3)C2)N1` reads above 25000 nM; that for `CC(C)n1ncc2c(C(=O)Nc3ccc4c(c3)CNC4)cc(Cl)cc21`, 186 nM.
The result for `Cc1cc(=O)[nH]c(-c2cccc(NC(=O)c3cc(C4CC4)n(C)c3C)c2)n1` reads above 25000 nM.
With `O=C(Nc1ccc2c(c1)CNC2)c1cc(F)cc(C2=CCOCC2)c1` the figure was 362 nM; with `Cc1c(NC(=O)c2cccc3c2CC(=O)N3)cnn1C1CCOCC1`, above 25000 nM.
Regarding `COc1ccc([C@@H]2C[C@H]2NC(=O)c2cccc3c2CC(=O)N3)cc1`, the IC50 is above 25000 nM.
With `COc1cc(-c2cc(NC(=O)c3cc(F)cc4[nH]ncc34)cc3c2CNC3)ccn1` the figure was 33 nM and 30 nM and 23 nM; with `Cc1c(C(=O)Nc2cccc(Cn3ccccc3=O)c2)cc(C2CC2)n1C`, above 25000 nM; with `CC(C)n1cc2c(C(=O)Nc3ccc4c(c3)CNC4)cc(Cl)cc2n1`, 46 nM and 34 nM.
As to `COC(=O)c1cc2c(cc1NC(=O)c1cc(F)cc3[nH]ncc13)CNC2`, the IC50 was 50 nM and 29 nM.
With `Cc1c(C(=O)Nc2cccc(C(=O)NC3CC3)c2)cc(C2CC2)n1C` the figure was above 25000 nM.
In turn, `Cc1c(C(=O)Nc2cc(C#N)cn(C)c2=O)cc(C2CC2)n1C` came in with an IC50 above 25000 nM.
The result for `CCCn1ncc2c(C(=O)Nc3ccc4c(c3)CNC4)cc(Cl)cc21` reads 188 nM.
With `O=C(Nc1ccc2c(c1)CNC2)c1cc(Cl)cc2c1cnn2C1CCC1` the figure was 31 nM and 23 nM; with `Cn1ncc(C(=O)Nc2cc(-c3cccnc3)ccn2)c1C1CC1`, 20800 nM; with `O=C1Cc2c(cccc2C(=O)NCC2(F)CC3(CCOCC3)C2)N1`, above 25000 nM.
